“And” between values parts separate entries of the source, which are not always exact repeats. Equal entries are not always repeated.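 The compound was tested at five concentrations on cells cultured in 96-well plates, with a 48-hour exposure period. Here, GI50 denotes the concentration required for 50% inhibition of growth. TGI denotes the concentration required for complete inhibition of growth.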 Where a SMILES comes first, the peptide text is derived from it. [ ]: non-standard residue; d: D form. The star is where a group is joined. ξ: configuration not given here. NMeF = CN[CH](Cc1ccccc1)C(=O)O; ξNMe2Val = CC(C)C(C(=O)*)N(C)C; NMeV = CN[CH](C(=O)O)C(C)C; OtBu = CC(C)(C)O*
Tests used:
Assay in all cases: inhibition of tumour cell growth, NCI panel, 48 h; in the data active = GI50 below about 0.43 µM; inactive = the rest
UACC-257 melanoma = system: UACC-257 melanoma
SN12C renal = system: SN12C renal
SNB-78 CNS = system: SNB-78 CNS
UACC-62 melanoma = system: UACC-62 melanoma
UO-31 renal = system: UO-31 renal
IGROV1 ovarian = system: IGROV1 ovarian
K-562 leukemia = system: K-562 leukemia
KM20L2 colon = system: KM20L2 colon
HCT-116 colon = system: HCT-116 colon
T-47D breast = system: T-47D breast
MDA-N = system: MDA-N

COc1ccc([C@H]2CC3C(=O)N(c4ccc(OC)cc4)C(=O)C3c3[nH]c4ccccc4c32)cc1 (some centres not stated)
> 100 µM: TGI (UACC-257 melanoma) | TGI (SN12C renal) | TGI (SNB-78 CNS) | TGI (UACC-62 melanoma) | TGI (UO-31 renal) | TGI (IGROV1 ovarian) | TGI (K-562 leukemia) | TGI (KM20L2 colon) | TGI (HCT-116 colon)

O=S(O)c1cc(Cl)c(O)c(Cl)c1
> 100 µM: TGI (UACC-257 melanoma) | TGI (SN12C renal) | TGI (SNB-78 CNS) | TGI (UACC-62 melanoma) | TGI (UO-31 renal) | TGI (K-562 leukemia) | TGI (HCT-116 colon)

COc1ccc(NC(=O)C(=O)Cc2ccc([N+](=O)[O-])c([N+](=O)[O-])c2CC(=O)C(=O)Nc2ccc(OC)cc2OC)c(OC)c1
> 100 µM: TGI (UACC-257 melanoma) | TGI (SN12C renal) | TGI (SNB-78 CNS) | TGI (UACC-62 melanoma) | TGI (UO-31 renal) | TGI (IGROV1 ovarian) | TGI (K-562 leukemia) | TGI (KM20L2 colon) | TGI (HCT-116 colon)

CSC(C1c2ccccc2N(C)c2[nH]c(=O)n(C)c(=O)c21)S(=O)(=O)c1ccc(C)cc1 (configuration not stated)
> 100 µM: TGI (UACC-257 melanoma) | TGI (SN12C renal) | TGI (SNB-78 CNS) | TGI (UACC-62 melanoma) | TGI (UO-31 renal) | TGI (IGROV1 ovarian) | TGI (K-562 leukemia) | TGI (HCT-116 colon)

Cc1nn2c(c1C#N)NNc1c-2sc(=N)nnc1=O
> 100 µM: TGI (SN12C renal) | TGI (UACC-62 melanoma) | TGI (UO-31 renal) | TGI (IGROV1 ovarian) | TGI (K-562 leukemia) | TGI (KM20L2 colon) | TGI (HCT-116 colon)

Brc1ccc(-c2cc3c(cc2C2SCCS2)OCO3)cc1
90.4 µM: TGI (UO-31 renal)
> 100 µM: TGI (UACC-257 melanoma) | TGI (SN12C renal) | TGI (SNB-78 CNS) | TGI (IGROV1 ovarian) | TGI (K-562 leukemia) | TGI (KM20L2 colon) | TGI (HCT-116 colon)

O=C1C(=C([O-])c2ccccc2)C(=O)c2ccccc21.O=C1C(=C([O-])c2ccccc2)C(=O)c2ccccc21.[Ni+2]
inactive: GI50 (UACC-257 melanoma) 83.3 µM | GI50 (SN12C renal) 51.3 µM | GI50 (UACC-62 melanoma) 36.8 µM | GI50 (UO-31 renal) 27.2 µM | GI50 (IGROV1 ovarian) 48.2 µM | GI50 (KM20L2 colon) > 100 µM
> 100 µM: TGI (UACC-257 melanoma) | TGI (SN12C renal) | TGI (UACC-62 melanoma) | TGI (UO-31 renal) | TGI (IGROV1 ovarian) | TGI (KM20L2 colon)

CCO/C(O)=c1/s/c(=C(\C#N)c2nc3ccccc3[nH]2)n(-c2ccccc2)c1=N
> 100 µM: TGI (UACC-257 melanoma) | TGI (SN12C renal) | TGI (SNB-78 CNS) | TGI (UACC-62 melanoma) | TGI (UO-31 renal) | TGI (IGROV1 ovarian) | TGI (K-562 leukemia) | TGI (KM20L2 colon) | TGI (HCT-116 colon)

CC(C)C(C(=O)N(C)C(Cc1ccccc1)C(=O)N(C)C(C(=O)N(C)C(C(=O)N1CCCC1C(=O)OC(C)(C)C)C(C)C)C(C)C)N(C)C (configuration not stated) (ξNMe2Val-[NMeF][NMeV][NMeV]P-OtBu; configuration not given here)
46.4 µM: TGI (KM20L2 colon)
> 100 µM: TGI (UACC-257 melanoma) | TGI (SN12C renal) | TGI (UACC-62 melanoma) | TGI (UO-31 renal) | TGI (IGROV1 ovarian) | TGI (K-562 leukemia) | TGI (HCT-116 colon)

CC1OC(O[C@@H]2C=C3CC[C@@H]4[C@H](CC[C@]5(C)[C@@H](c6ccc(=O)oc6)CC[C@]45O)[C@@]3(C)CC2)C(O)C(OC2OC(CO)C(O)C(O)C2O)C1O (some centres not stated)
0.0545 µM: TGI (KM20L2 colon)
0.0441 µM and 0.0265 µM: TGI (UACC-257 melanoma)
active: GI50 (T-47D breast) 0.00216 µM | GI50 (UACC-257 melanoma) 0.00126 µM
0.0219 µM and 0.0562 µM: TGI (IGROV1 ovarian)
0.00316 µM and 0.0263 µM: TGI (UO-31 renal)
0.0263 µM: TGI (UACC-62 melanoma)
0.033 µM: TGI (SNB-78 CNS)

COC(=O)c1ccccc1C1CN=NC12Cc1ccc3c(c1C2=O)CCC3 (configuration not stated)
> 100 µM: TGI (T-47D breast) | TGI (UACC-257 melanoma) | TGI (SN12C renal) | TGI (UACC-62 melanoma) | TGI (UO-31 renal) | TGI (IGROV1 ovarian) | TGI (K-562 leukemia) | TGI (HCT-116 colon) | TGI (MDA-N)

COc1ccc2c(c1)/c(=C/C#N)c1c3ccccc3[n+](C)n21
31 µM: TGI (IGROV1 ovarian)
47.4 µM: TGI (SN12C renal)
40.9 µM: TGI (MDA-N)
36.9 µM: TGI (UO-31 renal)
19.3 µM: TGI (UACC-257 melanoma)
10.6 µM: TGI (T-47D breast)
> 69.8 µM: TGI (K-562 leukemia)
12.5 µM: TGI (HCT-116 colon)
42.3 µM: TGI (UACC-62 melanoma)

COc1ccc(C2=Nc3ccccc3N=C(SC)C2)cc1
> 100 µM: TGI (SN12C renal) | TGI (SNB-78 CNS) | TGI (UACC-62 melanoma) | TGI (UO-31 renal) | TGI (IGROV1 ovarian) | TGI (KM20L2 colon) | TGI (HCT-116 colon)
65.7 µM: TGI (UACC-257 melanoma)
53.2 µM: TGI (K-562 leukemia)

COc1ccc(-c2oc3cc(O)c(OC)c(O)c3c(=O)c2O)cc1
> 66.6 µM: TGI (HCT-116 colon)
> 61.3 µM: TGI (UO-31 renal)
> 100 µM: TGI (T-47D breast) | TGI (UACC-257 melanoma) | TGI (SNB-78 CNS) | TGI (IGROV1 ovarian) | TGI (KM20L2 colon) | TGI (MDA-N)
> 53.5 µM: TGI (K-562 leukemia)
> 87.8 µM: TGI (UACC-62 melanoma)
> 75.2 µM: TGI (SN12C renal)

COc1ccc([I+]c2ccc(OC)cc2)cc1
> 38.3 µM: TGI (MDA-N)
> 100 µM: TGI (T-47D breast) | TGI (UACC-257 melanoma) | TGI (SN12C renal) | TGI (UACC-62 melanoma) | TGI (UO-31 renal) | TGI (IGROV1 ovarian) | TGI (K-562 leukemia) | TGI (HCT-116 colon)
inactive: GI50 (T-47D breast) 13.5 µM | GI50 (SN12C renal) 29.3 µM | GI50 (UACC-62 melanoma) 29.9 µM | GI50 (IGROV1 ovarian) 15.7 µM | GI50 (K-562 leukemia) 2.74 µM | GI50 (HCT-116 colon) 2.83 µM

C=C(C)CCC1C=[N+]([O-])OC(C)(C)C1(C)C (configuration not stated)
> 100 µM: TGI (T-47D breast) | TGI (UACC-257 melanoma) | TGI (SN12C renal) | TGI (UACC-62 melanoma) | TGI (UO-31 renal) | TGI (IGROV1 ovarian) | TGI (K-562 leukemia) | TGI (HCT-116 colon) | TGI (MDA-N)

Reference: PubChem BioAssay (NCI)
